One assay relates to NFkB-p65. The experiment in a line: Western blot of cytoplasmic and nuclear NFkB-p65 and phospho-serine 276 NFkB-p65 in LPS-induced BV2 microglia. In kind it is cell-based. As to conditions: BV2 cells, 22.0 μg/ml, 30 min pre-treatment then LPS 30 min; for inhibition of NFkB-p65 nucleotranslocation (cytosolic and nuclear NFkB-p65 levels): FIGS. 3 and 4; for inhibition of NFkB-p65 serine 276 phosphorylation: cytoplasmic and nuclear, FIGS. 5 and 6. The method, then:
(§1) Western blot analysis was performed in multiple varying formats before optimization was achieved. The BV2 microglia cell line was cultured in Dulbecco's Modified Eagle's Medium (DMEM)—complete medium. The complete medium consisted of DMEM, 1% Ampicillin, and 10% Fetal Bovine Serum (FBS). BV2 microglia cells, at a cell count of approximately 2×10^6, were seeded in each well (6 wells per plate) with 2.0 ml complete medium and cultured overnight in a ThermaForma HepaFilter Series II Coe Incubator at 37° Celsius. Upon establishing confluence, subconfluent cells were washed out and the wells were prepared with drug pre-treatment after overnight incubation.
(§2) The test drugs (curcuminoids) were procured as follows: curcumin I research standard (03926) (ChromaDex Irvine, Calif. USA) (97.7% purity); curcumin II research standard (04230) (ChromaDex Irvine, Calif. USA) (97.3%); curcumin III research standard (B6938) (Sigma-Aldrich St. Louis, Mo., USA) (97.7% purity); curcumin extract (curcumin I—77.7%, curcumin II—16.9%, curcumin III—0.9%) research standard (03928) (ChromaDex Irvine, Calif. USA) (95.3% purity); and Lipopolysaccharide (LPS) from E. Coli (L2630) (Sigma-Aldrich St. Louis, Mo., USA).
Curcuminoids are not soluble in aqueous medium due to their hydrophobic characteristic. However, curcuminoid extracts are soluble in polar organic solvents, such as DMSO and acetone. In this Example, each curcuminoid preparation was first dissolved in DMSO. DMSO was used in the drug preparation at 0.2%. The drug/DMSO solution was subsequently dissolved in DMEM to achieve a final drug concentration for each curcuminoid preparation tested—22.0 μg/ml curcuminoid. The DMEM/drug solution was used to replace the culture DMEM well medium and incubated for 30 minutes at 37-degrees Celsius in a ThermaForma incubator. At 31 minutes, lipopolysaccharide (LPS at […] final well concentration) induction of the cells was executed, except for the DMSO-only well to stimulate cell response amidst drug pre-treatment and without drug treatment.
The plates were then incubated for another 30 minutes after LPS stimulation. Upon removal from incubation, the cell medium was carefully removed and cells were washed, scraped, and collected with phosphate-buffered saline (PBS). Using a ThermoFisher Scientific NE-PER Nuclear and Cytoplasmic Extraction Kit (obtained from ThermoFisher Scientific Burlington, Ontario Canada), the cells were lysed and the cytoplasmic and nuclear protein fractions were collected and separated with the intention of probing each fraction for subcellular changes in cytoplasmic and nuclear proteins (as described further below).
Total protein concentration for each fraction was determined using a Bio Rad Protein Assay that is based on the Bradford Assay (dye-binding method). The total protein concentration determination was made prior to test sample preparation for gel electrophoresis execution (described below). The protein concentration colorimetric assay kit was purchased from Bio Rad Laboratories Canada Ltd. (Montreal, Quebec Canada). Each test sample was then prepared for loading and subjected to gel electrophoresis (SDS-PAGE) using a BioRad stain free gel system (Catalog No. 161-0181) and subsequently transferred/blotted to a nitrocellulose membrane (ThermoFisher Scientific Product No. 88018), blocked, and prepared for primary antibody treatment for each target.
The targets analyzed in the Western Blot included NFkB-p65 and its nucleocytoplasmic translocation, as well as kinases (including MSK1) and their covalent modifications upstream of and involved in the regulation of NFkB. Antibodies against NFkB-p65 (Ab16502) were procured from Abcam Inc. (Toronto, Ontario, Canada) as a primary antibody to probe for total NFkB-p65 levels in both nuclear and cytoplasmic fractions. […]

The next assay has as its target T1, MSK1 (Mus musculus, UniProt Q8C050).
T1 construct: the cells were lysed and the cytoplasmic and nuclear protein fractions were collected; endogenous in cells; host or cells: BV2 microglia, LPS-induced
The assay is described as follows: Western blot of cytoplasmic and nuclear MSK1 and phospho-serine 376 MSK1 in LPS-induced BV2 microglia. In kind it is cell-based. To be noted: BV2 cells, 22.0 μg/ml, 30 min pre-treatment then LPS 30 min. The method, then: as §1, §2
Curcuminoids are not soluble in aqueous medium due to their hydrophobic characteristic. However, curcuminoid extracts are soluble in polar organic solvents, such as DMSO and acetone. In this Example, each curcuminoid preparation was first dissolved in DMSO. DMSO was used in the drug preparation at 0.2%. The drug/DMSO solution was subsequently dissolved in DMEM to achieve a final drug concentration for each curcuminoid preparation tested—22.0 μg/ml curcuminoid. […]
Total protein concentration for each fraction was determined using a Bio Rad Protein Assay that is based on the Bradford Assay (dye-binding method). […]
The targets analyzed in the Western Blot included NFkB-p65 and its nucleocytoplasmic translocation, as well as kinases (including MSK1) and their covalent modifications upstream of and involved in the regulation of NFkB. […]

Structures are written as SMILES.

T1 sequence (Q8C050 whole entry): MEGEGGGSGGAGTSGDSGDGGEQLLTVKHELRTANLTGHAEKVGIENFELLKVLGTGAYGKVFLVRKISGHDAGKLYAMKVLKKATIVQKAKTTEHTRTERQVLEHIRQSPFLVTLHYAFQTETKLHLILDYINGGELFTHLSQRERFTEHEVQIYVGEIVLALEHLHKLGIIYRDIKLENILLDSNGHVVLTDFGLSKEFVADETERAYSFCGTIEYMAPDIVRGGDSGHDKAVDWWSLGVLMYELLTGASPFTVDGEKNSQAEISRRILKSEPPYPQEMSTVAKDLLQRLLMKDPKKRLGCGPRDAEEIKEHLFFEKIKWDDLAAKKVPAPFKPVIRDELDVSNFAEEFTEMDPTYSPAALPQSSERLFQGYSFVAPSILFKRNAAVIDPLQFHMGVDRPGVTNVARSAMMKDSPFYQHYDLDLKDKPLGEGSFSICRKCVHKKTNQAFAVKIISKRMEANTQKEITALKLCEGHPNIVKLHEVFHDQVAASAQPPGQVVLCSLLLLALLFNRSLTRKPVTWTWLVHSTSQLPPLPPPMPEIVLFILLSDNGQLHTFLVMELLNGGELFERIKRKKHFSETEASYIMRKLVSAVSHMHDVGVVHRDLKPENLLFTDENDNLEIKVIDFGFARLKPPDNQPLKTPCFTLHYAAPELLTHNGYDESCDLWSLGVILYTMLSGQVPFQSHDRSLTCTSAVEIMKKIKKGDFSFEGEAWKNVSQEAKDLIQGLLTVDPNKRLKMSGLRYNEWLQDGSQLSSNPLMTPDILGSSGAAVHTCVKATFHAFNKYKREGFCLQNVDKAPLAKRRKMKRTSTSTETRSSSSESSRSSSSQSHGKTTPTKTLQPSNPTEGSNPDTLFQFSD

Regarding `O=C(/C=C/c1ccc(O)cc1)CC(=O)/C=C/c1ccc(O)cc1` [curcumin III, (1E,6E)-1,7-bis(4-hydroxyphenyl)hepta-1,6-diene-3,5-dione], in the assay with NFkB-p65, the “inhibition of NFkB-p65 nucleotranslocation (cytosolic and nuclear NFkB-p65 levels)” value is reported as “not significantly inhibited”; the “inhibition of NFkB-p65 serine 276 phosphorylation” value was “moderately inhibit”. Moreover, the “inhibition of MSK1 protein levels in the cytoplasm” value on MSK1 (FIG. 7) is “significantly inhibited and downregulated”. Moreover, the “inhibition of MSK1 protein levels in the nucleus” value on MSK1 (FIG. 8) was “significantly inhibited and downregulated”.

Regarding `COc1cc(/C=C/C(=O)CC(=O)/C=C/c2ccc(O)cc2)ccc1O` [curcumin II, (1E,6E)-1-(4-Hydroxy-3-methoxyphenyl)-7-(4-hydroxyphenyl)hepta-1,6-diene-3,5-dione], in the assay with NFkB-p65, the “inhibition of NFkB-p65 nucleotranslocation (cytosolic and nuclear NFkB-p65 levels)” value is given as “not significantly inhibited”; the “inhibition of NFkB-p65 serine 276 phosphorylation” value is given as “moderately inhibit”. For the same compound, the “inhibition of MSK1 serine 376 phosphorylation” value on MSK1 (cytoplasmic and nuclear, FIGS. 9 and 10) was “inhibit”.

As to `COc1cc(/C=C/C(=O)/C=C(O)/C=C/c2ccc(O)c(OC)c2)ccc1O` [curcumin I, (1E,6E)-1,7-Bis(4-hydroxy-3-methoxyphenyl)-1,6-heptadiene-3,5-dione], in the assay on NFkB-p65, the “inhibition of NFkB-p65 nucleotranslocation (cytosolic and nuclear NFkB-p65 levels)” value was “not significantly inhibited”; the “inhibition of NFkB-p65 serine 276 phosphorylation” value is on record as “moderately inhibit”.

Values taken from patent US9782364B1, “Curcumin-based compositions and methods of use thereof” (priority 2015, dated 2017).
